This is an account of results in patent publication EP4653444A1, “FUSED TRICYCLIC COMPOUND AS KINASE INHIBITOR” (Hangzhou Innogate Pharma Co., Ltd., priority 2023, dated 2024).

For this experiment, the target named is T1, TNK1 kinase (Homo sapiens, UniProt Q13470).
T1 sequence (Q13470 1-666): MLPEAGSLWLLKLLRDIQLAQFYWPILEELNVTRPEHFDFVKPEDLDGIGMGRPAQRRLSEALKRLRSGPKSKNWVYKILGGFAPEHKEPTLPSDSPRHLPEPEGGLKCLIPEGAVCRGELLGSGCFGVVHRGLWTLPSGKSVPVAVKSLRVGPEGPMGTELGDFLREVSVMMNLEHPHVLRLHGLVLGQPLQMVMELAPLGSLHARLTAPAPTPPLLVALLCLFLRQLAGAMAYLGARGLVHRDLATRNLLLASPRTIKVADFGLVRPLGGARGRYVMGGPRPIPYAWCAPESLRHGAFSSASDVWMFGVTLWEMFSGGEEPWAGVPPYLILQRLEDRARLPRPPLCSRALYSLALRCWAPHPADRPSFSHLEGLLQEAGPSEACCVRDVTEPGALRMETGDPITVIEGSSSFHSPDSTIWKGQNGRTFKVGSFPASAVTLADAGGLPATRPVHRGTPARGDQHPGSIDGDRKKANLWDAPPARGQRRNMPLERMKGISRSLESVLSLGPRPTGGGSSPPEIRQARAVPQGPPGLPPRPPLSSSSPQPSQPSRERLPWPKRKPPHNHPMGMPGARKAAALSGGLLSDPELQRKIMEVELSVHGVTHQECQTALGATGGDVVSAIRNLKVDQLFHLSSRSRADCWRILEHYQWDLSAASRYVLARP
Description: TNK1 kinase activity inhibition assay (ADP-Glo). It is filed as biochemical. As to the method:
Measure compound inhibitory activity against TNK1 kinase using ADP-Glo Assay. 1× kinase reaction buffer was prepared (working concentrations: HEPES 50 mM, MgCl2 10 mM, Brij35 0.01%, EGTA 1 mM, DTT 2 mM). 2× kinase and 4× substrate buffers were prepared with the following working concentrations: For TNK1 kinase: kinase solution at 5 nM; substrate mixture containing ATP at 45 µM and MBP substrate at 0.1 mg/ mL. For ULK2 kinase: kinase solution at 0.15 nM; substrate mixture containing ATP at 6 µM and MBP substrate at 0.1 mg/mL. Compounds were serially diluted in DMSO and shaken on an orbital shaker for 20 minutes. 2× kinase solution was prepared using 1× kinase reaction buffer. 20 nL of compound solution was transferred to a 384-well plate. 2 µL of kinase solution was added to each well of the reaction plate. The plate was sealed with adhesive film, centrifuged at 1000 rpm for 60 seconds, and incubated at 25°C for 10 minutes. 2× ATP&MBP mixture was prepared using 1× kinase reaction buffer. 2 µL of 2× ATP&substrate mixture was added to the reaction plate. The plate was sealed with adhesive film, centrifuged at 1000 rpm for 60 seconds, and incubated at 25°C for 60 minutes. 4 µL of ADP-Glo reagent was transferred to the 384-well reaction plate, centrifuged at 1000 rpm for 1 minute, and incubated at 25°C for 40 minutes. 8 µL of Detection solution was transferred to the 384-well reaction plate, centrifuged at 1000 rpm for 1 minute, and incubated at 25°C for 40 minutes. Relative luminescence units (RLU) were measured using a BMG microplate reader, with signal intensity representing kinase activity level. The inhibition percentage was calculated as follows: % inhibition = 100% - [(Compound RLU - Positive Control RLU)/(Negative Control RLU - Positive Control RLU)] × 100%. The IC50 values (half-maximal inhibitory concentration) of compounds were determined by fitting the data to the following nonlinear regression equation using GraphPad Prism 7.0 software: Y = Bottom + (Top - Bottom)/(1 + 10^((LogIC50 - X) × Hill Slope)), where: X = log(compound concentration), Y = % inhibition. Table1: Inhibitory activity of compounds against ULK (IC50, nM)
(In general: ADP-Glo first removes unused ATP, then detects ADP through luciferase.)

As to `CNC(=O)c1ccccc1Nc1cc(Nc2cc3c(cc2OC)N2CCN(C4CCN(C)CC4)C[C@H]2CO3)ncc1C(F)(F)F` [Compound D2S], the concentration for half-maximal inhibition (IC50) (in general, the concentration at which inhibition is half-maximal) was less than 10 nM.
